We go through 16 compounds from patent US10501433B2, “Kynurenine-3-monooxygenase inhibitors, pharmaceutical compositions, and methods of use thereof” (CHDI Foundation, Inc., priority 2013, dated 2019).

The assay has as its target T1, KMO mouse enzyme (Mus musculus, UniProt Q91WN4).
T1 construct: KMO enzyme prepared at Evotec from mouse liver (4-6 weeks old) via mitochondria isolation; from tissue; host or cells: mouse liver (4-6 weeks old), isolated mitochondria
Description: KMO enzyme assay monitoring L-Kynurenine hydroxylation to 3OH-KYN by LC/MS (protocols substantially similar to Biology Example 3). To be noted: compound at 30 μM; KMO enzyme from mouse liver mitochondria; 100 μM L-Kynurenine. The format is biochemical. As to the method: A method of monitoring L-Kynurenine (KYN) hydroxylation to form 3-Hydroxy-Kynurenine (3OH-KYN) by LC/MS is described. Product is quantified by multiple reaction monitoring (MRM method).
• Compound: Stock concentrations: 10 mM in 100% DMSO • Enzyme: KMO enzyme prepared at Evotec from mouse liver (4-6 weeks old) via mitochondria isolation as described in the literature • Substrate: L-Kynurenine (Sigma: Cat #K3750, stock concentration: 10 mM in 100 mM potassium phosphate buffer, pH 7.4) Assay Conditions: • Buffer: 100 mM potassium phosphate, pH 7.4, 200 μM NADPH, 0.4 U/ml G6P-DH (Glucose 6-phosphate Dehydrogenase), 3 mM G6P (D-Glucose 6-phosphate) • Assay Volume: 40 μl • Plate Format: 384 well plate, transparent (Matrix) • Read-Out: product (3OH-KYN) quantification using product specific MRM • Reader: LC/MS/MS Assay Protocol: • prepare serial dilution (factor 3) of compound in 100% DMSO (top concentration=10 mM, 100% DMSO) • [[…]: 10 mM; 3.33 mM; 1.11 mM; 0.37 mM; 0.12 mM; 0.04 mM; 0.0137 mM; 0.0045 mM, […]] • prepare 3.33-fold concentrated solution of each compound concentration (top concentration 300 μM, 3% DMSO) in assay buffer • [concentrations: 300 μM; 100 μM; 33.3 μM; 11.1 μM; 3.70 μM; 1.23 μM; 0.41 μM; 0.137 μM] • prepare substrate (10 mM) at concentration of 1 mM in assay buffer • assay mix: 4 μl compound/well of each concentration+24 μl assay buffer/well+8 μl KMO mouse enzyme+4 μl 1 mM substrate (final concentration=100 μM) • [final compound top concentration: 30 μM; 0.3% DMSO] • [final compound bottom concentration: 0.0137 μM; 0.3% DMSO] • positive control: 4 μl 50 μM FCE28833 in assay buffer, 0.5% DMSO [final assay concentration=5 μM]+24 μl assay buffer/well+8 μl KMO mouse enzyme+4 μl mM substrate [final concentration=100 μM] • negative control: 28 μl assay buffer/well+8 μl KMO mouse enzyme+4 μl 1 mM substrate • [final concentration=100 μM] • incubate 40 min at RT • add 40 μl/well 10% trichloro acetic acid in water to stop the assay and precipitate protein • centrifuge plate for 3 min at 4000 rpm • product detection by LC/MS (injection of 20 μl/well, 2 fold overfill of the 10 μl sample loop) Data Analysis:
IC50's are calculated using automated fitting algorithm (A+ Analysis).
Using the assay protocols substantially similar to those of Biology Example 3, the following compounds were tested.

One may read the inhibition as the relative decrease from the control value, in per cent.

T1 sequence (Q91WN4 whole entry): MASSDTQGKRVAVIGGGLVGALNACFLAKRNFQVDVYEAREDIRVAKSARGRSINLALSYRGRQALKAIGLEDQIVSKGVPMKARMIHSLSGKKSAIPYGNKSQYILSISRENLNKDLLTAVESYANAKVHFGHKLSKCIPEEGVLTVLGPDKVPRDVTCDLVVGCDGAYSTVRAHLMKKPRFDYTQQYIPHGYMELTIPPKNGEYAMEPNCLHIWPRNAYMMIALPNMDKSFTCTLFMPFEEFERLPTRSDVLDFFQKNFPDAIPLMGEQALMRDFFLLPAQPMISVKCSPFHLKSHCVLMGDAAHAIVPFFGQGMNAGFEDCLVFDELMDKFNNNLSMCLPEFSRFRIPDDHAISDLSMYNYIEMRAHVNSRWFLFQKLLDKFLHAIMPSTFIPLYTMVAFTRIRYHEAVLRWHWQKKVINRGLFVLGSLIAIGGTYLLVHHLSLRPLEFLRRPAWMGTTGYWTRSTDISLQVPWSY

As for `O=C(O)[C@H]1C[C@@H]1C(=O)c1cc(Cl)c2c(c1)CCO2` [Example 1, Method 1, (1S, 2S)-2-(7-chloro-2,3-dihydro-1-benzofuran-5-carbonyl)cyclopropane-1-carboxylic acid], the inhibition at 30 µM is 100%. With `O=C(O)[C@H]1C[C@@H]1C(=O)c1cc(Cl)c2c(c1)CCCO2` [Example 1, Method 2, (1S, 2S)-2-(8-Chloro-3,4-dihydro-2H-1-benzopyran-6-carbonyl)cyclopropane-1-carboxylic acid], the inhibition at 30 µM stood at 100%. With `Cn1c(=O)oc2cc(C(=O)[C@H]3C[C@@H]3C(=O)O)cc(Cl)c21` [Example 1, Method 3, (1S,2S)-2-(4-Chloro-3-methyl-2-oxo-2,3-dihydro-1,3-benzoxazole-6-carbonyl)cyclopropane-1-carboxylic acid], the inhibition at 30 µM turned out to be 93.5%. To `O=C(O)[C@H]1C[C@@H]1C(=O)c1ccc2c(c1)OCCO2` [Example 1, Method 4, (1S,2S)-2-(2,3-Dihydro-1,4-benzodioxine-6-carbonyl)cyclopropane-1-carboxylic acid] belongs 102%; to `CC1Cc2cc(C(=O)[C@H]3C[C@@H]3C(=O)O)ccc2O1` (stereo partly drawn) [Example 1, Method 5, (1S,2S)-2-(2-methyl-2,3-dihydro-1-benzofuran-5-carbonyl)cyclopropane-1-carboxylic acid], 103%; to `CC1Cc2cc(C(=O)[C@H]3C[C@@H]3C(=O)O)cc(Cl)c2O1` (stereo partly drawn) [Example 1, Method 6, (1S,2S)-2-(7-chloro-2-methyl-2,3-dihydro-1-benzofuran-5-carbonyl)-cyclo-propane-1-carboxylic acid], 100%. As for `CC1COc2c(Cl)cc(C(=O)[C@H]3C[C@@H]3C(=O)O)cc2C1` (stereo partly drawn) [Example 1, Method 7, (1S,2S)-2-(8-Chloro-3-methyl-3,4-dihydro-2H-1-benzopyran-6-carbonyl)cyclo-propane-1-carboxylic acid], the inhibition at 30 µM is 101%.

`O=C(O)[C@H]1C[C@@H]1C(=O)c1cc(Cl)c2c(c1)OCCO2` [Example 1, Method 8, (1S,2S)-2-(8-Chloro-2,3-dihydro-1,4-benzodioxine-6-carbonyl)cyclopropane-1-carboxylic acid]: the inhibition at 30 µM came to 102%. Take `O=C(O)[C@H]1C[C@@H]1C(=O)c1cc(Cl)c2c(c1)OCO2` [Example 1, Method 9, (1S,2S)-2-(7-Chloro-2H-1,3-benzodioxole-5-carbonyl)cyclopropane-1-carboxylic acid]: the inhibition at 30 µM came out at 102%. The same measure for `CC1Oc2cc(C(=O)[C@H]3C[C@@H]3C(=O)O)cc(Cl)c2O1` (stereo partly drawn) [Example 1, Method 10, (1S,2S)-2-(7-Chloro-2-methyl-2H-1,3-benzodioxole-5-carbonyl)cyclopropane-1-carboxylic acid]: 102%; for `O=C(O)[C@H]1C[C@@H]1C(=O)c1ccc2c(c1)CCO2` [Example 2, Method 1, (1S,2S)-2-(2,3-dihydro-1-benzofuran-5-carbonyl)cyclopropane-1-carboxylic acid]: 98.7%.

Consider `Cn1c(=O)oc2c(Cl)cc(C(=O)[C@H]3C[C@@H]3C(=O)O)cc21` [Example 2, Method 3, (1S,2S)-2-(7-Chloro-3-methyl-2-oxo-2,3-dihydro-1,3-benzoxazole-5-carbonyl)cyclopropane-1-carboxylic acid], for which the inhibition at 30 µM was 101%. To `O=C(O)[C@H]1C[C@@H]1C(=O)c1ccc2c(c1)CCCO2` [Example 2, Method 4, (1S,2S)-2-(3,4-dihydro-2H-1-benzopyran-6-carbonyl)cyclopropane-1-carboxylic acid] belongs 101%; to `CC1(C)Cc2cc(C(=O)[C@H]3C[C@@H]3C(=O)O)ccc2O1` [Example 2, Method 5, (1S,2S)-2-(2,2-Dimethyl-2,3-dihydro-1-benzofuran-5-carbonyl)cyclopropane-1-carboxylic acid], 64.8%. With `O=C(O)[C@H]1C[C@@H]1C(=O)c1ccc2c(c1)SCCO2` [Example 3, Method 5, (1S,2S)-2-(2,3-dihydro-1,4-benzoxathiine-6-carbonyl)cyclopropane-1-carboxylic acid], the inhibition at 30 µM was 101%. In the case of `O=C(O)[C@H]1C[C@@H]1C(=O)c1ccc2c(c1)OCO2` [Example 4, Method 5, (1S,2S)-2-(2H-1,3-benzodioxole-5-carbonyl)cyclopropane-1-carboxylic acid], the inhibition at 30 µM was 94.1%.
